Target: T1, CrtE (geranylgeranyl diphosphate synthase, GGPPS) (Sporobolomyces pararoseus, UniProt A0A2P1HA31)
T1 construct: dimer only in the predicted model
Assay: TLC of dephosphorylated product (GGOH)
Format: biochemical

T1 sequence (A0A2P1HA31 1-377): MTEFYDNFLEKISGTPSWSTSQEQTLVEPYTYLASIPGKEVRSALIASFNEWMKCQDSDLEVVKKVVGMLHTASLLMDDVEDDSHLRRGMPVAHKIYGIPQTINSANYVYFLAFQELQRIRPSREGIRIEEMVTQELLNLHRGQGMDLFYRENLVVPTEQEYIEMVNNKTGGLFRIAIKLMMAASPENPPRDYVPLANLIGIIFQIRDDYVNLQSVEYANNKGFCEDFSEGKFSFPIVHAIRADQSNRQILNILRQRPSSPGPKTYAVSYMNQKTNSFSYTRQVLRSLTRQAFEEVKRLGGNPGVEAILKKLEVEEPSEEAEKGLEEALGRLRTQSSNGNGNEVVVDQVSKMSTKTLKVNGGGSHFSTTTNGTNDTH

Structure (SMILES): CC(C)=CCC/C(C)=C/CC/C(C)=C/COP(=O)(O)OP(=O)(O)O [FPP, farnesyl diphosphate]
- TLC of dephosphorylated product (GGOH) (50 uM FPP, 50 uM IPP, 10 ng CrtE in 200 uL, 100 mM HEPES with 5 mM MgCl2 (enzyme exchange buffer) pH 7.5, 28 C, 2 h, Trx/His/S tags kept): largest number of GGPP was produced using FPP

Structure (SMILES): C=C(C)CCOP(=O)(O)OP(=O)(O)O [IPP, isopentenyl diphosphate]
- TLC of dephosphorylated product (GGOH) (50 uM IPP with 50 uM allylic co-substrate (FPP, GPP or DMAPP), else same): using three different allylic substrates and IPP as substrates for the reaction
